Measured values reported in patent US20030039628A1, “Activation and protection of T-cells (CD4+ and CD8+) using an H2 receptor agonist and other T-cell activating agents” (priority 1998, published 2003).

Experiments:
[1] = test system: CD3e+ T-cells and CD56+ NK-cells; conditions: cited from earlier work
[2] = test system: CD69 expression on T-cells; assay: CD69 expression on T-cells incubated with or without autologous monocytes (MO), flow cytometry; format: cell-based, human
Experimental: To study the activation characteristics of T-cells in the presence and absence of MO, T-cell activation compounds, H2-receptor agonists, and H2O2 scavengers, peripheral venous blood was obtained as freshly prepared leukopacks from healthy blood donors at the Blood Centre, Sahlgren's Hospital, Göteborg, Sweden. The blood (65 ml) was mixed with 92.5 ml Iscove's medium, 35 ml 6% Dextran (Kabi Pharmacia, Stockholm, Sweden) and 7.5 ml acid citrate dextrose (ACD) (Baxter, Deerfield, Ill.). After incubation for 15 minutes at room temperature, the supernatant was carefully layered onto Ficoll-Hypaque (Lymphoprep, Myegaard, Norway). Mononuclear cells (MNC) were collected at the interface after centrifugation at 380 g for 15 minutes at room temperature, washed twice in PBS and resuspended in Iscove's medium supplemented with 10% human AB^+ serum. During all further separation of cells, the cell suspensions were kept in siliconized test tubes (Vacuette, Greiner, Stockholm).
The MNC were further separated into lymphocyte and monocyte (MO) populations using the counter-current centrifugal elutriation (CCE) technique originally described by Yasaka and co-workers (Yasaka, T. et al., J. Immunol., 127:1515) with modifications as described in Hansson, M., et al. (J. Immunol., 156: 42 (1996); hereby incorporated by reference). Briefly, the MNC were resuspended in elutration buffer containing 0.05% BSA and 0.015% EDTA in buffered NaCl and fed into a Beckman J2-21 ultracentrifuge with a JE-6B rotor at 2100 rpm. A fraction with >90% MO was obtained at a flow rate of 18 ml/min. A lymphocyte fraction enriched for NK-cells (CD3^−/56^+ phenotype) and T-cells (CD3^+/56^−) was recovered at flow rates of 14-15 ml/min. […] In some experiments, dynabeads (Dynal A/S, Oslo, Norway) coated with anti-CD56 were used to obtain purified lymphocyte preparations of T-cells, as described in detail by Hansson, M., et al., incorporated above.
Flow cytometry was used in the experiments described below to identify the various sub-populations of T-cells. Flow cytometry permits an investigator to examine a population of cells using a number of labeled probes to differentiate sub-populations within the larger whole. In these experiments, the CD3 marker was used to identify the subpopulation of T-cells and the CD4 and CD8 markers were used to further identify the subpopulation of T-cells into T helper cells and CTLs. The effects of MO exposure in the presence and absence of histamine and T-cell activation compounds were determined using the CD69 T-cell activation marker. The expression of the different markers was estimated in a lymphocyte gate using flow cytometry (as described in Hellstrand, K., et al. Cell. Immunol. 138: 44-54 (1991), and hereby incorporated by reference).
The following protocol was used in experiments reporting the detection of surface antigens of cell populations. One million cells were incubated with appropriate fluorescein isothiocynate (FITC) and phycoerythrin (PE) conjugated monoclonal antibodies (Becton & Dickinson, Stockholm, Sweden; 1:1/10^6 cells), on ice for 30 minutes. The cells were washed twice in PBS and resuspended in 500:1 sterile filtered PBS and analyzed by use of flow cytometry on a FACSort with a Lysys II software program (Becton & Dickenson). Lymphocytes were gated on the basis of forward and right angle scatter. The flow rate was adjusted to <200 cells×s^− and at least 5×10^3 cells were analyzed for each sample, if not otherwise stated.
Isolated peripheral blood lymphocytes (150,000 cells/well in a total volume of 0.2 ml) were incubated in microplates for 16 hours at 37° C. in the presence or absence of autologous MO.

T-cells and NK-cells = assay: MO-induced cell death (apoptosis) of T-cells and NK-cells, flow cytometry; format: cell-based, human
Experimental: In this Example, apoptotic morphology of lymphocytes exposed to MO was monitored by staining cells with a dye mix containing acridine orange (10:g/ml; Sigma) and ethidium bromide (10:g/ml; Sigma), both prepared in phosphate buffered saline. One microliter (1:1) of dye mix was added to 25:1 of cells suspension (1-2×10^6/ml) in siliconized test tubes. Thereafter, 10:1 of the cell suspension was placed on a glass slide and immediately counted in a fluorescence microscope (Nikon) under times forty (×40) magnification with qualification of dead, living, apoptotic and non-apoptotic cells. (See Hellstrand, K., et al. J. Immunol., 153: 4940-4947 (1994); Hansson, M., et al., J. Immunol. 156:42-47 (1996)).
(See Hansson M., et al., supra). Cell death in lymphocytes was monitored by gating nonviable T-cells or NK-cells after exposure to MO, with and without histamine or catalase. A gate with reduced forward scatter and increased right angle scatter characteristic of apoptosis was employed in these studies. (See Hansson M., et al., supra; Mizgerd J. P., et al., J. Leukoc. Biol. 59:189 (1996); herein incorporated by reference; gate also described in Example 1).

[3] = test system: T-cell enriched lymphocytes; format: cell-based, human
[4] = test system: herpes simplex virus (HSV); conditions: single dose of histamine; cited from earlier work
NK cells [5] = conditions: absence of monocytes; cited from earlier work
lymphocytes = conditions: cited from earlier work
H2 receptor = H2 receptor (Homo sapiens, UniProt P25021); conditions: cited from earlier work
Chain of H2 receptor (P25021 whole entry): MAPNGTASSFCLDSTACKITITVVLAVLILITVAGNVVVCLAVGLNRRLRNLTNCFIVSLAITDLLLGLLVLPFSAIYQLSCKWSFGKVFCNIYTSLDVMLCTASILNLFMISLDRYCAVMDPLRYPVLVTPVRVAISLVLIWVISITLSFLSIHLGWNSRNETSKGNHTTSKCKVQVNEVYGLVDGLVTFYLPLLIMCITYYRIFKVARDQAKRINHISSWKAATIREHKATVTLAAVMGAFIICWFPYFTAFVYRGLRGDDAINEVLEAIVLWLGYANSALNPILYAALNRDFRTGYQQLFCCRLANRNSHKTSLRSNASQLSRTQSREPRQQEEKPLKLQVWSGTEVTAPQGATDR

NK cells [6] = conditions: cited from earlier work

Compound: OO [hydrogen peroxide]
- concentration required to induce apoptosis in CD3e+ T-cells relative to CD56+ NK-cells [1]: Approximately 5 fold

Compound: NCCc1c[nH]cn1 [histamine]
- effect on CD69 expression in CD3+ and CD4+ T-cells incubated with IFN-α ([2]; MO present vs. absence of MO): enhanced the expression of CD69 to a significantly higher level
- effect on MO-induced inhibition of IL-2 induced acquisition of CD69 in T-cells ([2]; histamine 50 :M, IL-2 100 U/ml, with MO): counteracted
- effect on CD69 expression in non-stimulated or cytokine-activated T-cells ([2]; histamine 50 :M, incubated without MO): did not significantly alter
- effect on CD69 expression in CD8+ cells activated with IFN-α ([2]; with MO): restored by histamine to the level observed in pure lymphocytes
- ED50 of effect on cytokine-induced expression of CD69 in T-cells ([2]; with MO, histamine 0.1-50:M, dose-dependent): approximately 2 :M
- prevention of MO-induced cell death (T-cells and NK-cells; all subsets of T-cells and NK-cells, histamine 50 :M, 16 hours): > 80%
- effect on vaccine-induced proliferation [3]: strongly potentiated
- proliferation of cells not treated with the vaccine [3]: slightly augmented
- survival time of HSV-inoculated animals [4]: prolong survival time
- effect on NK mediated cytotoxicity (NK cells [5]): no effect or weakly suppressed
- effect on lymphocyte proliferation in response to phytohemagglutinin or staphylococcal enterotoxin type A (lymphocytes): reduce the proliferation

Compound: CNC(=C[N+](=O)[O-])NCCOCc1ccc(CN(C)C)o1 [AH20399AA]
- antagonism of the histamine response on cytokine-induced CD69 expression ([2]; equimolar or 10-fold lower concentrations than histamine): did not block
- reversal of the histamine effect on MO-induced cell death (T-cells and NK-cells; concentrations equimolar to 10-fold lower than histamine): not
- reduction of affinity for the H2 receptor relative to ranitidine (H2 receptor): > 50 fold

Compound: catalase
- effect on induction of CD69 in the absence of MO ([2]; absence of MO): did not affect
- effect on MO-induced inhibition of cytokine-induced CD69 expression ([2]; catalase 10-200 U/ml, IL-2 100 U/ml, with MO): significantly reversed
- effect of catalase alone on percentage of CD3+ cells expressing CD69 ([2]; catalase alone, 0 to 200 U/ml, with MO): little effect
- percentage of CD3+ cells expressing the CD69 marker ([2]; with MO, IL-2 100 U/ml, catalase 200 U/ml): ~11%
- mimicking of the histamine effect on MO-induced cell death (T-cells and NK-cells): mimicked

Compound: CN(C)CCCSC(=N)N [dimaprit]
- action on histamine's effect on granulocyte mediated suppression of NK cell antibody dependent cytotoxicity (NK cells [6]): mimicked

Compound: IFN-α
- change of IFN-α-induced CD69 in CD3e+ cells by the addition of MO ([2]; IFN-α, with vs. without MO): seemingly unchanged
- induction of CD69 in CD3e+ cells ([2]; in response to IFN-α (100 U/ml)): ~10%
- induction of CD69 in CD4+ cells compared with IL-2 ([2]; incubated without MO, p<0.01): less effective than IL-2
- IFN-α induced level of CD69 on CD4+ cells when MO were added ([2]; with vs. without MO, p<0.05): significantly higher
- effect of concomitant treatment on MO-induced cell death and on histamine protection (T-cells and NK-cells; 100 U/ml): unaffected

Compound: CNC(=C[N+](=O)[O-])NCCSCc1ccc(CN(C)C)o1 [ranitidine]
- action on histamine's effect on granulocyte mediated suppression of NK cell antibody dependent cytotoxicity (NK cells [6]): blocked
